# Experimental data taken from patent US20240115705A1, “Regulation of Butyrophilin subfamily 3 member A1 (BTN3A1, CD277)” (The J. Gladstone Institutes, a testamentary trust …, priority 2021, published 2024).
# Columns and labels:
# BTN3A1 = assay: BTN3A expression genome-wide CRISPR knockout screen (FACS sort of surface BTN3A high/low cells); assay type: cell-based, human
# BTN3A [1] = assay: mTOR/ISR compound treatment, surface BTN3A by flow cytometry in AAVS1 and PPAT KO Daudi-Cas9 cells; assay type: cell-based, human; details: control KO (AAVS1) and purine biosynthesis KO (PPAT) Daudi-Cas9 cells, 10 μM, 72 hours
# Procedure: Daudi-Cas9 AAVS1 and PPAT KO cells (190 μL) were seeded at 250,000 cells/mL in round-bottom 96-well plates. Cells received 10 μL of DMSO (vehicle) or one of the following compounds at a final concentration of 10 μM: sephin1 (APE×BIO), ISRIB (MedChemExpress), guanabenz acetate (MedChemExpress), Sal003 (MedChemExpress), salubrinal (MedChemExpress), raphin1 acetate (MedChemExpress), and rapamycin (MilliporeSigma). Edge wells were filled with 200 μL of sterile PBS or water. After being cultured for 72 hours, the cells were stained with APC-conjugated anti-human CD277 antibody (clone BT3.1, 1:50 dilution) (Miltenyi Biotec) and 7-AAD (1:150 dilution) (Tonbo), and analyzed on the Attune NxT flow cytometer.
# BTN3A [2] = assay: Compound C dose response in combination with AICAR or OXPHOS inhibition, surface BTN3A; assay type: cell-based, human; design: BTN3A levels vs vehicle control: dose or concentration left out as unconfirmed
# Procedure: Daudi-Cas9 cells (170 μL) were seeded at 292,000 cells/mL in cRPMI in round-bottom 96-well plates. Ten μL of Compound C (Abcam) were added to all the cells at various concentrations. At indicated concentrations, 20 μL of rotenone, oligomycin A, FCCP, 2-DG, AICAR, or cRPMI (control) were added to the wells that received Compound C. Ten μL of DMSO at dilutions matching Compound C and 20 μL of cRPMI were added to the DMSO-only vehicle control wells. Plate edge wells were filled with 200 μL of sterile water or PBS. The cells were grown at 37° C. for 72 hours, stained with APC-conjugated anti-human CD277 antibody (clone BT3.1, 1:50 dilution) (Miltenyi Biotec) and 7-AAD (1:150 dilution) (Tonbo), and analyzed on the Attune NxT flow cytometer.
# [3] = biological target: BTN2A1-BTN3A1-BTN3A2 cell surface complex on Daudi-Cas9 cells (human; Homo sapiens) (UniProt Q7KYR7); assay: flow cytometry, PE-TCR tetramer (160 nM) staining of WT Daudi-Cas9 cells treated 72 h with 80 µM Compound 991 against DMSO
# [4] = biological target: BTN2A1-BTN3A1-BTN3A2 cell surface complex on Daudi-Cas9 cells (human; Homo sapiens) (UniProt Q7KYR7); assay: flow cytometry, PE-TCR tetramer (160 nM) staining of WT Daudi-Cas9 cells treated 72 h with 0.5 mM AICAR against untreated cells
# BTN2A1 transcripts = assay: RT-qPCR of drug-treated Daudi-Cas9 cells, BTN2A1; assay type: cell-based, human; details: 80 PM, 72 hours, normalized to ACTB and DMSO
# Procedure: (§1) For measurement on Daudi-Cas9 KOs, samples were collected at 13 days after lentiviral transduction. For measurements on drug-treated WT Daudi-Cas9 cells, 180 μL of Daudi-Cas9 cells were seeded in a round-bottom 96-well plate at 275,000 cells/mL. All surrounding wells were filled with 200 μL of sterile PBS or water. With four replicates per treatment, cells were treated with 20 μL of AICAR (final concentration 0.5 mM), Compound 991 (final concentration 80 PM), DMSO, or water. The cells were collected for RT-qPCR measurements after 72 hours of incubation. RNA was extracted from approximately 70,000 cells per sample using the Quick-RNA 96 Kit (Zymo Research) or Direct-zol RNA Microprep Kit (Zymo) according to the manufacturer's protocol without the optional on-column DNase I treatment. According to the manufacturer's protocol, 1 μL of RNA was immediately processed using the Maxima First Strand cDNA Synthesis Kit for RT-qPCR with the dsDNase treatment (Thermo Fisher). Two cDNA synthesis reactions, in addition to a reverse transcriptase minus (RT−) negative control reaction, were performed for each biological replicate. […] Ct values across the three technical replicates for each sample were assessed for significant outliers resulting from technical failures (any samples in triplicate with a standard deviation above 0.2 were assessed) and subsequently averaged. […]
# Daudi-Cas9 cells = assay: γδ TCR tetramer staining (G115 Vγ9Vδ2 TCR clone) of Daudi-Cas9 cells; assay type: cell-based, human; details: WT Daudi-Cas9 cells, 72 hours
# Description: The G115 Vγ9Vδ2 TCR clone tetramer was generated using the following methods. The G115 γ-[…] chain sequence (Davodeau et al. J. Immunol. 151, 1214-1223 (1993)) was cloned into the pAcGP67A vector with a C-terminal acidic zipper, and the G115 δ-chain sequence (Davodeau et al. (1993)) as cloned into the pAcGP67A vector with a C-terminal AviTag followed by a basic zipper. Zippers stabilized the TCR complex. The TCR was expressed in the High Five baculovirus insect-cell expression system and purified via affinity chromatography over a Ni-NTA column. TCRs were biotinylated and biotinylation was confirmed using a TrapAvidin SDS-PAGE assay. The G115 TCR was then further purified using size-exclusion chromatography (Superdex200 100/300 GL column, GE Healthcare) and purity was confirmed via SDS-PAGE. Tetramers were generated by incubating biotinylated TCR with streptavidin conjugated to the PE fluorophore.
# Daudi-Cas9 KO cells were analyzed 13 and 14 days post-lentiviral transduction. WT Daudi-Cas9 cells were analyzed after being cultured for 72 hours with 0.5 mM AICAR, 80 μM Compound 991, DMSO (vehicle control at the concentration matching Compound 991), or nothing. […] Stained cells were analyzed on the Attune NxT flow cytometer.
# BTN3A [5] = assay: Inhibitor dose response, surface BTN3A by flow cytometry in WT Daudi-Cas9 cells; assay type: cell-based, human; details: 72 hours, complete RPMI, vs vehicle
# Procedure: Daudi-Cas9 cells (180 μL) were seeded at 275,000 cells/mL in cRPMI in round-bottom 96-well plates. Twenty μL of zoledronate, rotenone (MedChemExpress), oligomycin A (Neta Scientific), FCCP (MedChemExpress), antimycin A (Neta Scientific), AICAR (Sigma), 2-DG (Sigma), Compound 991 (Selleck Chemical), A-769662 (Sigma), ethanol (vehicle), or DMSO (vehicle, at dilutions matching the treatment) at various concentrations were added to the cells. Plate edge wells were filled with 200 μL of sterile water or PBS. The cells were grown at 37° C. for 72 hours, and stained with APC-conjugated anti-human CD277 antibody (clone BT3.1, 1:50 dilution)(Miltenyi Biotec) and 7-AAD (1:150 dilution) (Tonbo). The cells were then analyzed on the Attune NxT flow cytometer.
# BTN3A1 transcripts = assay: RT-qPCR of drug-treated Daudi-Cas9 cells, BTN3A1; assay type: cell-based, human; details: 80 PM, 72 hours, normalized to ACTB and DMSO
# Procedure: as §1
# BTN3A2 transcripts = assay: RT-qPCR of drug-treated Daudi-Cas9 cells, BTN3A2; assay type: cell-based, human; details: 80 PM, 72 hours, normalized to ACTB and DMSO
# Procedure: as §1
# UniProt Q7KYR7, sequence (Q7KYR7 29-527, chain 1 of 3): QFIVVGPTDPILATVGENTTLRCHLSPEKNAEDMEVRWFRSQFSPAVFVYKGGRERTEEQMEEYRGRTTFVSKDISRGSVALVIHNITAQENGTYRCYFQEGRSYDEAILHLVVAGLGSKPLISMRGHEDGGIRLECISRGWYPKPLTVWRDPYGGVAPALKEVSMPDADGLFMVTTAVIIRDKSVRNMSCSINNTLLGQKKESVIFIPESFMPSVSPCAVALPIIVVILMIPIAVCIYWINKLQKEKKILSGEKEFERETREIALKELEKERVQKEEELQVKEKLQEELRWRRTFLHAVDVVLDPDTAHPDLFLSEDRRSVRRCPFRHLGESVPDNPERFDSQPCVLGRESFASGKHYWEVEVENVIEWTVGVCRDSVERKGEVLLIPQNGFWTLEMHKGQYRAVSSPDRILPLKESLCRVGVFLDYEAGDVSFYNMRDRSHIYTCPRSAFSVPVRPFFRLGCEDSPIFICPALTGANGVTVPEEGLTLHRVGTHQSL
# UniProt Q7KYR7, sequence (chain, as listed by the source, chain 2 of 3): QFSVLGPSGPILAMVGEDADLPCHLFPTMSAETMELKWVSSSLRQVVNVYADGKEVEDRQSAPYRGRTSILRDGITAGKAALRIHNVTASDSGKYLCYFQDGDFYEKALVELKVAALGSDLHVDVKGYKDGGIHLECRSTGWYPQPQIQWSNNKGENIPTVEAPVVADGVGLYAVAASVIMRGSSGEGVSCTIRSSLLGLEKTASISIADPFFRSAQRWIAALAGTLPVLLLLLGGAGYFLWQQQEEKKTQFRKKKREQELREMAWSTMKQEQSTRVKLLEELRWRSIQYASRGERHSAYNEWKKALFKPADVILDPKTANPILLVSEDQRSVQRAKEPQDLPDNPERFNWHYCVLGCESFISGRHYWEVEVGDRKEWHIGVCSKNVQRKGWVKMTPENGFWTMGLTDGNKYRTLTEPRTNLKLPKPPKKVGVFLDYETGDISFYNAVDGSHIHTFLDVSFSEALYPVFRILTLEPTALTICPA
# UniProt Q7KYR7, sequence (chain, as listed by the source, chain 3 of 3): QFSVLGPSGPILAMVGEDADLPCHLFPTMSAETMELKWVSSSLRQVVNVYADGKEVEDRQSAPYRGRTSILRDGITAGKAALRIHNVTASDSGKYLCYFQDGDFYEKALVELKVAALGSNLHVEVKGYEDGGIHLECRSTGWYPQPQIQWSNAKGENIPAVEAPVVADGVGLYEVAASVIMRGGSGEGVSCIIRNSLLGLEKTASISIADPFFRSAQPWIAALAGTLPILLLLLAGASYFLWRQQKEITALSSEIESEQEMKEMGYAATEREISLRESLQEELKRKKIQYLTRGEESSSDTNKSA
compound,measurement,setting,value
COQ2,Log2 Fold Change,"BTN3A1; Table 2, positive regulators of BTN3A1, gene knockout in Daudi-Cas9 cells, FACS sort on surface BTN3A1 (anti-BTN3A1 clone BT3.1), three replicates",1.1343
O=C(/C=C/c1ccccc1)NC(NC(=S)Nc1ccc(Cl)cc1)C(Cl)(Cl)Cl (stereo not shown) [Sal003],BTN3A surface expression,BTN3A [1],downregulation
O=C(COc1ccc(Cl)cc1)NC1CCC(NC(=O)COc2ccc(Cl)cc2)CC1 (stereo not shown) [ISRIB],BTN3A surface expression,BTN3A [1],negligible effects
NC(N)=N/N=C/c1cccc(Cl)c1Cl [raphin1],BTN3A surface expression,BTN3A [1],negligible effects
c1cc(-c2cnn3cc(-c4ccc(OCCN5CCCCC5)cc4)cnc23)ccn1 [Compound C],"BTN3A upregulation caused by OXPHOS inhibition (rotenone, oligomycin, FCCP) or glycolysis inhibition (2-DG)","BTN3A [2]; WT Daudi-Cas9 cells co-treated with Compound C, 72 hours",neutralized
same,AICAR-induced BTN3A upregulation,"BTN3A [2]; WT Daudi-Cas9 cells co-treated with increasing amounts of Compound C and AICAR, 72 hours",decreased the AICAR-induced BTN3A upregulation
same,BTN3A levels vs vehicle control,"BTN3A [2]; co-treated with AICAR, Compound C",falling well below those observed in the vehicle control
PE-conjugated Vγ9Vδ2 TCR (clone G115) tetramer (from UniProt P22629 37-163),fold tetramer staining against vehicle control-treated cells,[3],5 fold
same,percent increase of tetramer staining,[4],40 to 80%
Cc1ccc(Oc2nc3cc(-c4ccc5c(ccn5C)c4)c(Cl)cc3[nH]2)cc1C(=O)O [Compound 991],BTN2A1 transcript level by qPCR,BTN2A1 transcripts,transcriptionally upregulated
same,staining with G115 Vγ9Vδ2 TCR tetramer compared to vehicle control-treated cells,Daudi-Cas9 cells; 80 μM,about five times higher
same,surface BTN3A (MFI),BTN3A [5],Upregulation of surface BTN3A
same,BTN3A1 transcript level by qPCR,BTN3A1 transcripts,transcriptionally upregulated
same,BTN3A2 transcript level by qPCR,BTN3A2 transcripts,transcriptionally upregulated
O=C(/C=C/c1ccccc1)NC(NC(=S)Nc1cccc2cccnc12)C(Cl)(Cl)Cl (stereo not shown) [salubrinal],BTN3A surface expression,BTN3A [1],negligible effects
"NC(=O)c1ncn([C@@H]2O[C@H](CO)[C@@H](O)[C@H]2O)c1N [AICAR, N^1-(β-D-Ribofuranosyl)-5-aminoimidazole-4-carboxamide]",increase in G115 Vγ9Vδ2 TCR tetramer staining,Daudi-Cas9 cells; 0.5 mM,40-80%
same,surface BTN3A (MFI),BTN3A [5],dramatic increase in surface BTN3A
RPIA,Log2 Fold Change,"BTN3A1; gene knockout in Daudi cells expressing Cas9, genome wide CRISPR knockout screen sorted on surface BTN3A1, Table 1 Negative Regulators of BTN3A1",−1.4533
N=C(N)N/N=C/c1c(Cl)cccc1Cl [guanabenz],BTN3A surface expression,BTN3A [1],negligible effects
